Results on one substance are retold here after US20190090476A1, “MICROEMULSIONS FOR AGRICULTURAL USE” (Florida Chemical Company, Inc., priority 2017, published 2019).

Series [1] can be described thus: HSP distance Ra and relative energy difference RED of solvents versus plant wax HSP values. The text has this: The HSP distance between two molecules, conventionally called Ra, is the measure of how alike they are. The smaller the Ra, the more likely they are to be compatible. A quantity called the relative energy difference (RED) may be used to measure relative distance:
where Ro is the radius of the sphere that contains all good solvents. […] Generally, a value of Ro=7.1 is typical. For RED<1, the molecules are alike and will dissolve. For RED=1, the system will partially dissolve. For RED>1, the system will not dissolve.
A solvent with similar HSP values to these, or a solvent for which Ra (calculated as shown above) is small, or for which RED is less than or equal to 1, would be expected to partially solvate and soften plant leaf cuticle waxes.

The conditions of series [2]: cited from earlier work.

Take Dimethyl Cyclohexane: the “Ra 2” value in series [1] (HSP distance to lower plant wax HSP values (δD=16.0-16.3, δP 0-2.5, δH=0-3.1)) was determined as 3.2. The “Ra 1” value in series [1] (HSP distance to upper plant wax HSP values (δD=16.0-16.3, δP 0-2.5, δH=0-3.1)) is 1.1. In addition, the “RED 1” value in series [1] (RED=Ra 1/Ro, Ro=7.1) is 0.16. For the same substance, the “RED 2” value in series [1] (RED=Ra 2/Ro, Ro=7.1) amounted to 0.45. In addition, in series [2] (energy from dispersion forces), the δD is given as 16.1 MPa^1/2. The δH in series [2] (energy from hydrogen bonds) is given as 1.1 MPa^1/2. Also, the δP in series [2] (energy from polar intermolecular force) is on record as 0 MPa^1/2.
